Data: the supplement of paper PMC8671470
Counter-ions that a name gives are not always drawn.

Legend:
Details in all cases: 72 h
[1] = system: myeloid leukemia patient primary cells Pat.10; assay: area under dose-response curve (viability, 1 nM-10 uM) (fraction (0-1)); higher = more sensitive
Method: (§1)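 AUC (0–1, higher = more sensitive) of the 5-point dose–response (1 nM–10 µM, 72 h, CellTiter-Glo) in primary AML/CML patient mononuclear cells. 0.030103 is the floor for inactive compounds.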

[2] = system: myeloid leukemia patient primary cells Pat.11; assay: as above
Method: as §1

[3] = system: myeloid leukemia patient primary cells Pat.12; assay: as above
Method: as §1

[4] = system: myeloid leukemia patient primary cells Pat.13; assay: as above
Method: as §1

[5] = system: myeloid leukemia patient primary cells Pat.14; assay: as above
Method: as §1

[6] = system: myeloid leukemia patient primary cells Pat.15; assay: as above
Method: as §1

[7] = system: myeloid leukemia patient primary cells Pat.1; assay: as above
Method: as §1

[8] = system: myeloid leukemia patient primary cells Pat.3; assay: as above
Method: as §1

[9] = system: myeloid leukemia patient primary cells Pat.4; assay: as above
Method: as §1

[10] = system: myeloid leukemia patient primary cells Pat.5; assay: as above
Method: as §1

[11] = system: myeloid leukemia patient primary cells Pat.6; assay: as above
Method: as §1

[12] = system: myeloid leukemia patient primary cells Pat.7; assay: as above
Method: as §1

[13] = system: myeloid leukemia patient primary cells Pat.8; assay: as above
Method: as §1

[14] = system: myeloid leukemia patient primary cells Pat.9; assay: as above
Method: as §1

[15] = system: myeloid leukemia patient primary cells Pat.2; assay: as above
Method: as §1

[16] = system: BV-173; assay: cell viability (% survival relative to DMSO control); higher = less cytotoxic
Method: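 8x8 drug-combination matrices (0–5000 nM; rosiglitazone and lestaurtinib 0–1000 nM) were run in BV-173 cells for 72 h with CellTiter-Glo read-out. Survival is normalised to DMSO and 10 µM bortezomib and clipped at 100%.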

CN(Cc1cnc2nc(N)nc(N)c2n1)c1ccc(C(=O)N[C@@H](CCC(=O)O)C(=O)O)cc1 [Methotrexate]
Details | area under dose-response curve
[1] | 0.294
[2] | < 0.0301
[3] | < 0.0301
[4] | < 0.0301
[5] | 0.306
[6] | < 0.0301
[7] | < 0.0301
[8] | 0.469
[9] | < 0.0301
[10] | 0.384
[11] | < 0.0301
[12] | 0.399
[13] | < 0.0301
[14] | 0.526

CC(=O)Nc1nc(C)c(-c2ccc(Cl)c(S(=O)(=O)NCCO)c2)s1 [PIK93]
Details | area under dose-response curve
[1] | 0.728
[2] | 0.204
[3] | < 0.0301
[4] | 0.214
[5] | 0.139
[6] | 0.417
[7] | 0.365
[8] | 0.545
[9] | 0.401
[10] | 0.907
[11] | 0.0757
[12] | 0.16
[13] | 0.0853
[14] | 0.82
[15] | 0.0748

C[C@]12C=CC(=O)C=C1CC[C@@H]1[C@@H]2[C@@H](O)C[C@@]2(C)[C@H]1CC[C@]2(O)C(=O)CO [Prednisolone]
Details | area under dose-response curve
[1] | 0.678
[3] | < 0.0301
[4] | < 0.0301
[5] | < 0.0301
[7] | < 0.0301
[8] | 0.227
[10] | < 0.0301
[12] | < 0.0301
[13] | 0.0885
[14] | < 0.0301

C=CCN(C)CCCCCCOc1ccc(C(=O)c2ccc(Br)cc2)c(F)c1.O=C(O)/C=C/C(=O)O [Ro 48-8071 fumarate]
Details | area under dose-response curve
[1] | 0.146
[2] | 0.0457
[4] | 0.0673
[5] | 0.0802
[6] | < 0.0301
[7] | 0.109
[8] | 0.576
[9] | 0.0305
[10] | 0.146
[11] | 0.0624
[12] | 0.217
[13] | 0.0337
[14] | 0.13
[15] | 0.0431

CN(CCOc1ccc(Cc2sc(O)nc2O)cc1)c1ccccn1 [Rosiglitazone]
Details | area under dose-response curve
[1] | 0.0632
[2] | < 0.0301
[3] | < 0.0301
[4] | < 0.0301
[5] | < 0.0301
[7] | < 0.0301
[8] | 0.0764
[9] | < 0.0301
[10] | 0.0995
[11] | < 0.0301
[12] | < 0.0301
[13] | < 0.0301
[14] | 0.139
[15] | < 0.0301

CN(CCOc1ccc(Cc2sc(O)nc2O)cc1)c1ccccn1 [Rosiglitazone] + CC(C)(Cc1ccccc1)NCC(O)c1ccc(O)c(NS(C)(=O)=O)c1 [Zinterol hydrochloride]
cell viability [%], [16]
Details | drug1 concentration 1 nM | drug1 concentration 5 nM | drug1 concentration 10 nM | drug1 concentration 50 nM | drug1 concentration 100 nM | drug1 concentration 500 nM | drug1 concentration 1000 nM
drug2 concentration 5 nM | > 100 | > 100 | > 100 | > 100 | > 100 | > 100 | > 100
drug2 concentration 10 nM | > 100 | 86.8 | > 100 | > 100 | > 100 | > 100 | > 100
drug2 concentration 50 nM | 98.6 | > 100 | 88.7 | > 100 | 91.5 | > 100 | > 100
drug2 concentration 100 nM | > 100 | > 100 | > 100 | > 100 | > 100 | 97.1 | > 100
drug2 concentration 500 nM | > 100 | > 100 | > 100 | > 100 | > 100 | > 100 | > 100
drug2 concentration 1000 nM | > 100 | 89.5 | > 100 | 94.1 | > 100 | > 100 | > 100
drug2 concentration 5000 nM | 94.8 | > 100 | 90.4 | > 100 | > 100 | 97.6 | > 100

CN(CCOc1ccc(Cc2sc(O)nc2O)cc1)c1ccccn1 [Rosiglitazone] + c1cc(-c2cnn3cc(-c4ccc(OCCN5CCCCC5)cc4)cnc23)ccn1 [Dorsomorphin]
cell viability [%], [16]
Details | drug1 concentration 1 nM | drug1 concentration 5 nM | drug1 concentration 10 nM | drug1 concentration 50 nM | drug1 concentration 100 nM | drug1 concentration 500 nM | drug1 concentration 1000 nM
drug2 concentration 5 nM | > 100 | > 100 | > 100 | > 100 | > 100 | > 100 | 91.8
drug2 concentration 10 nM | > 100 | > 100 | > 100 | 97.8 | > 100 | > 100 | > 100
drug2 concentration 50 nM | 58.5 | > 100 | > 100 | > 100 | > 100 | > 100 | > 100
drug2 concentration 100 nM | > 100 | 99.4 | > 100 | 77.2 | > 100 | > 100 | > 100
drug2 concentration 500 nM | > 100 | > 100 | 94.2 | > 100 | > 100 | 98.4 | 95.3
drug2 concentration 1000 nM | 91.7 | > 100 | 62.5 | > 100 | > 100 | > 100 | > 100
drug2 concentration 5000 nM | 75.2 | 85 | 99.8 | 93.5 | 97.2 | > 100 | > 100

CC(C)(C)c1ccc(S(=O)(=O)NCc2ccc(C(=O)Nc3cccnc3)cc2)cc1 [STF-31]
Details | area under dose-response curve
[1] | 0.449
[2] | 0.368
[3] | 0.366
[4] | 0.358
[5] | 0.653
[6] | 0.375
[7] | 0.267
[8] | 0.745
[9] | 0.567
[10] | 0.896
[11] | 0.357
[12] | 0.66
[13] | 0.433
[14] | 0.8
[15] | 0.367

CO[C@H]1C[C@@H]2CC[C@@H](C)[C@@](O)(O2)C(=O)C(=O)N2CCCC[C@H]2C(=O)O[C@H]([C@H](C)C[C@@H]2CC[C@@H](OC(=O)C(C)(CO)CO)[C@H](OC)C2)CC(=O)[C@H](C)/C=C(\C)[C@@H](O)[C@@H](OC)C(=O)[C@H](C)C[C@H](C)/C=C/C=C/C=C/1C [Temsirolimus]
Details | area under dose-response curve
[1] | 0.123
[2] | < 0.0301
[3] | < 0.0301
[4] | < 0.0301
[5] | 0.142
[6] | 0.584
[7] | 0.0628
[8] | 0.123
[9] | 0.206
[10] | 0.798
[11] | < 0.0301
[12] | 0.146
[13] | < 0.0301
[14] | 0.608
[15] | < 0.0301

CN1CCN(CCCN2c3ccccc3Sc3ccc(C(F)(F)F)cc32)CC1 [Trifluoperazine]
Details | area under dose-response curve
[1] | 0.362
[2] | 0.174
[3] | 0.0812
[4] | 0.182
[5] | 0.294
[6] | 0.102
[7] | 0.209
[8] | 0.429
[9] | 0.162
[10] | 0.36
[11] | 0.187
[12] | 0.517
[13] | 0.106
[14] | 0.423
[15] | 0.108
